Legend:
[1] = Measurement of critical micelle concentration (surface tension, platinum suspension plate method); assay type: physicochemical; conditions: critical micelle concentration from surface tension measurement
Method: A highly functional surface tensiometer (DY-500 (available from Kyowa Interface Science Co., Ltd.) was used to perform surface tension measurement by a platinum suspension plate method, and critical micelle concentrations (CMCs) of the STL C14, the STL C16, the STL C18, sodium lauryl sulfate, sodium deoxycholate, and sodium caprylate were calculated in accordance with a common method. The results are described in Table 4.

[2] = Foam property evaluation (dynamic foam analyzer); assay type: physicochemical; conditions: 0.5% aqueous solution, pH 8.0, water hardness 20°dH, 25°C; for Creaminess of foam Bubble area after 20 seconds: 20 seconds after stirring was stopped; for Creaminess of foam Bubble area after 600 seconds: 600 seconds after stirring was stopped; for Foam retention evaluation Foam change rate: smaller = better foam retention
Method: Thereafter, an average bubble area of foams was determined based on the images, and creaminess (foamability) of the foams was evaluated according to the following criteria. Note that the creaminess of the foams is characterized by having a small final bubble diameter (measured as average bubble area). The foams generated from the aqueous solutions containing the STL C14, the STL C16, or the STL C18 had small bubble areas, and thus it was considered that creamy foams could be formed. • ⊚ (good): The bubble area was 20000 µm^2 or less. • ∘ (passed): The bubble area was 20001 µm^2 or more and 30000 µm^2 or less. • Δ (slightly poor): The bubble area was 30001 µm^2 or more and 40000 µm^2 or less. • × (poor): The bubble area was 40001 µm^2 or more. A foam change rate was calculated using the following equation. It can be determined that the smaller the foam change rate is, the better the foam retention is, in other words, the better the foaming durability is. […]

L929 mouse fibroblasts = conditions: values of L. Vian et al., Toxicol in vitro, 9(2), 185-190, 1995; cited from earlier work
Zein powder = test: Protein denaturation test (dissolution of Zein powder); conditions: 0.5% aqueous solution, pH 8.0; 0.03 g Zein powder in 10 mL; room temperature, 2 hours; index of skin irritation
Method: 0.03 g of Zein powder (FUJIFILM Wako Pure Chemical Corporation) was added to the aqueous solutions of the STL. After stirring at room temperature and 1200 rpm for 2 hours, the Zein powder-added solutions were transferred to centrifuge tubes, respectively, and centrifuged at 6200 rpm for 10 seconds to precipitate and remove undissolved zein powder. The protein concentrations in the solutions were measured using a microvolume spectrophotometer NanoDrop (NanoDrop Technologies).
The protein denaturation test was performed in the same manner using sodium lauryl sulfate, sodium deoxycholate, and sodium caprylate.

Molecule | Surface activating ability evaluation CMC [1] [mM] | Creaminess of foam Bubble area after 20 seconds [2] | Creaminess of foam Bubble area after 600 seconds [2] | Foam retention evaluation Foam change rate [2] [%] | Cytotoxicity evaluation IC50 (L929 mouse fibroblasts) [ppm] | Protein denaturation ability evaluation Protein dissolution concentration (Zein powder) [µg/mL]
CCCCCCCC(=O)[O-].[Na+] [Sodium caprylate, sodium caprylate] | 300 | ○ | Δ (Δ (slightly poor): The bubble area was 30001 µm^2 or more and 40000 µm^2 or less.) | 1.09 | 887 | –
CCCCCCCCCCCCOS(=O)(=O)[O-].[Na+] [Sodium lauryl sulfate, sodium lauryl sulfate] | 8 | ⊚ (⊚ (good): The bubble area was 20000 µm^2 or less.) | Δ (Δ (slightly poor): The bubble area was 30001 µm^2 or more and 40000 µm^2 or less.) | 2.81 | 86 | –
sodium deoxycholate | 6 | ⊚ (⊚ (good): The bubble area was 20000 µm^2 or less.) | × (× (poor): The bubble area was 40001 µm^2 or more.) | 2.62 | 90 | 430

Source: EP4631490A1, “ACTIVATOR AND SKIN CONDITION IMPROVING AGENT” (Nippon Shokubai Co., Ltd., priority 2022, dated 2024)
